The source of these data is patent publication US8759361B2, “2-phenoxy pyrimidinone analogues” (Neurogen Corporation, priority 2006, dated 2014).

In general, IC50 refers to the concentration at which inhibition is half-maximal.

For the test, the target named is T1, human capsaicin receptor (Homo sapiens, UniProt Q8NER1).
T1 construct: expressed in transfected cells
The experiment in a line: Calcium mobilization assay, determination of antagonist activity (Example 6). The class given is cell-based. The conditions noted are these: cells expressing human capsaicin receptor, capsaicin-induced fluorescence response. As to the method:
A cDNA encoding full length human capsaicin receptor (SEQ ID NO:1, 2 or 3 of U.S. Pat. No. 6,482,611) is subcloned in the plasmid pBK-CMV (Stratagene, La Jolla, Calif.) for recombinant expression in mammalian cells.
Human embryonic kidney (HEK293) cells are transfected with the pBK-CMV expression construct encoding the full length human capsaicin receptor using standard methods. The transfected cells are selected for two weeks in media containing G418 (400 μg/ml) to obtain a pool of stably transfected cells. Independent clones are isolated from this pool by limiting dilution to obtain clonal stable cell lines for use in subsequent experiments.
Cells transfected with expression plasmids (as described in Example 4) and thereby expressing human capsaicin receptor are seeded and grown to 70-90% confluency in FALCON black-walled, clear-bottomed 96-well plates (#3904, BECTON-DICKINSON, Franklin Lakes, N.J.). The culture medium is emptied from the 96 well plates and FLUO-3 AM calcium sensitive dye (Molecular Probes, Eugene, Oreg.) is added to each well (dye solution: 1 mg FLUO-3 AM, 440 μL DMSO and 440 μl 20% pluronic acid in DMSO, diluted 1:250 in Krebs-Ringer HEPES (KRH) buffer (25 mM HEPES, 5 mM KCl, 0.96 mM NaH2PO4, 1 mM MgSO4, 2 mM CaCl2, 5 mM glucose, 1 mM probenecid, pH 7.4), 50 μl diluted solution per well). Plates are covered with aluminum foil and incubated at 37° C. for 1-2 hours in an environment containing 5% CO2. After the incubation, the dye is emptied from the plates, and the cells are washed once with KRH buffer, and resuspended in KRH buffer.
To measure the ability of a test compound to agonize or antagonize a calcium mobilization response in cells expressing capsaicin receptors to capsaicin or other vanilloid agonist, the EC50 of the agonist capsaicin is first determined. An additional 20 μl of KRH buffer and 1 μl DMSO is added to each well of cells, prepared as described above. 100 μl capsaicin in KRH buffer is automatically transferred by the FLIPR instrument to each well. Capsaicin-induced calcium mobilization is monitored using either FLUOROSKAN ASCENT (Labsystems; Franklin, Mass.) or FLIPR (fluorometric imaging plate reader system; Molecular Devices, Sunnyvale, Calif.) instruments. Data obtained between 30 and 60 seconds after agonist application are used to generate an 8-point concentration response curve, with final capsaicin concentrations of 1 nM to 3 μM. KALEIDAGRAPH software (Synergy Software, Reading, Pa.) is used to fit the data to the equation: y=a*(1/(1+(b/x)^c)) to determine the 50% excitatory concentration (EC50) for the response. In this equation, y is the maximum fluorescence signal, x is the concentration of the agonist or antagonist (in this case, capsaicin), a is the Emax, b corresponds to the EC50 value and c is the Hill coefficient. Determination of Agonist Activity
Test compounds are dissolved in DMSO, diluted in 20 μl KRH buffer so that the final concentration of test compounds in the assay well is between 1 μM and 5 μM, and added to cells prepared as described above. The 96 well plates containing prepared cells and test compounds are incubated in the dark, at room temperature for 0.5 to 6 hours. It is important that the incubation not continue beyond 6 hours. Just prior to determining the fluorescence response, 100 μl capsaicin in KRH buffer at twice the EC50 concentration determined as described above is automatically added by the FLIPR instrument to each well of the 96 well plate for a final sample volume of 200 μl and a final capsaicin concentration equal to the EC50. The final concentration of test compounds in the assay wells is between 1 μM and 5 μM. […] The concentration of antagonist required to provide a 50% decrease, relative to the response observed in the presence of capsaicin and without antagonist, is the IC50 for the antagonist, and is preferably below 1 micromolar, 100 nanomolar, 10 nanomolar or 1 nanomolar.
Background: Calcium assays in cells follow changes in intracellular calcium, usually with a dye or a luminescent sensor.

Setting [1] is: read-out: IC50 determined as described in Example 6.

Structures are written as SMILES. Read-outs that look alike come from different tables or passages of the source.

T1 sequence (Q8NER1 whole entry): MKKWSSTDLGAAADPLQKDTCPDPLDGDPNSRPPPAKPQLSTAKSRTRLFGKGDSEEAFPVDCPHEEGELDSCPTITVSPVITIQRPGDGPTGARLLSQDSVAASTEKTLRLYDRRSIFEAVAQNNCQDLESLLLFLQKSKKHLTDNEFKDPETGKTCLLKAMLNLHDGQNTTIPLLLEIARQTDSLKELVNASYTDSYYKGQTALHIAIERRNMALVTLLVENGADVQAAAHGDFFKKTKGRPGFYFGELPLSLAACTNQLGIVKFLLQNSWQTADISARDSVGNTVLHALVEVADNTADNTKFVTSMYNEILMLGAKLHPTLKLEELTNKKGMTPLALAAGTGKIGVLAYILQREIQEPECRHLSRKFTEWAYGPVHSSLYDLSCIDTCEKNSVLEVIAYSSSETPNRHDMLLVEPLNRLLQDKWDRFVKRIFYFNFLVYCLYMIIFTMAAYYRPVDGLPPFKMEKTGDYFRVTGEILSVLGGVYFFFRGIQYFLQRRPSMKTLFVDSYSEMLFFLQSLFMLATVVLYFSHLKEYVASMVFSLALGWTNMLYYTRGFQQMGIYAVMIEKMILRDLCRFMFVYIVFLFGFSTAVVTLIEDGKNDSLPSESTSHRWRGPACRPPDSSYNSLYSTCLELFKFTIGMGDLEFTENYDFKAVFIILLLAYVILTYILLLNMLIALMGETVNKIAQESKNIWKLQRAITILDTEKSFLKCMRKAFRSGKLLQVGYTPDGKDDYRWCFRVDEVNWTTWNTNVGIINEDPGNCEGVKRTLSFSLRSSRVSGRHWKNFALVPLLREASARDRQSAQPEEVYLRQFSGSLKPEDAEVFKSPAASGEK

With `Cn1cnc2c(=O)n(-c3ccc(Cl)nc3)c(Oc3cc(F)c(F)c(F)c3)nc21` [Compound 6, 1-(6-Chloropyridin-3-yl)-9-methyl-2-(3,4,5-trifluorophenoxy)-1H-purin-6(9H)-one], the IC50 under setting [1] was at most 100 nM.
Turning to `O=c1c2ncsc2nc(Oc2cc(F)cc(F)c2F)n1-c1ccc(F)cc1` [Compound 36, 6-(4-fluorophenyl)-5-(2,3,5-trifluorophenoxy)[1,3]thiazolo[5,4-d]pyrimidin-7(6H)-one], the 50% inhibitory concentration (IC50) (read-out: IC50) is at most 100 nM.
For the compound `Cn1cnc2c(=O)n(-c3ccc(F)cc3)c(Oc3ccc(F)cc3Cl)nc21` [Compound 22, 2-(2-chloro-4-fluorophenoxy)-1-(4-fluorophenyl)-9-methyl-1,9-dihydro-6H-purin-6-one], the half-inhibitory concentration (IC50) (read-out: IC50) was at most 100 nM.
The same measure, in the same setting: the value for `O=c1c2ncsc2nc(Oc2cc(F)cc(C(F)(F)F)c2)n1-c1ccc(F)cc1` [Compound 44, 6-(4-fluorophenyl)-5-[3-fluoro-5-(trifluoromethyl)phenoxy][1,3]thiazolo[5,4-d]pyrimidin-7(6H)-one] was at most 100 nM; that for `Cn1cnc2c(=O)n(-c3ccc(F)cc3)c(Oc3cccc(C(F)(F)F)c3)nc21` [Compound 48, 1-(4-fluorophenyl)-9-methyl-2-[3-(trifluoromethyl)phenoxy]-1,9-dihydro-6H-purin-6-one] was at most 100 nM.
Still for that read-out and setting: then `Cn1cnc2c(=O)n(-c3ccc(F)cc3)c(Oc3c(F)ccc(F)c3F)nc21` [Compound 24, 1-(4-fluorophenyl)-9-methyl-2-(2,3,6-trifluorophenoxy)-1,9-dihydro-6H-purin-6-one], with at most 100 nM.
Same read-out and setting: the value for `Cn1cnc2c(=O)n(-c3ccc(Cl)cc3)c(Oc3cc(F)cc(F)c3F)nc21` [Compound 27, 1-(4-chlorophenyl)-9-methyl-2-(2,3,5-trifluorophenoxy)-1,9-dihydro-6H-purin-6-one] was at most 100 nM; that for `O=c1c2ncsc2nc(Oc2cccc(F)c2F)n1-c1ccc(F)cc1` [Compound 34, 5-(2,3-difluorophenoxy)-6-(4-fluorophenyl)[1,3]thiazolo[5,4-d]pyrimidin-7(6H)-one] was at most 100 nM.
On to `Cc1csc2c(=O)n(-c3ccc(F)cc3)c(Oc3ccc(Cl)cc3F)nc12` [Compound 54, 2-(4-chloro-2-fluorophenoxy)-3-(4-fluorophenyl)-7-methylthieno[3,2-d]pyrimidin-4(3H)-one], for which the IC50 (read-out: IC50) was at most 100 nM.
Take `O=c1c2ncccc2nc(Oc2ccc(F)cc2F)n1-c1ccc(F)cc1` [Compound 31, 2-(2,4-difluorophenoxy)-3-(4-fluorophenyl)pyrido[3,2-d]pyrimidin-4(3H)-one]: for the setting “read-out: IC50”, the half-inhibitory concentration (IC50) is at most 100 nM.
As to `Cn1cnc2c(=O)n(-c3ccc(Br)cc3)c(Oc3ccc(F)c(F)c3F)nc21` [Compound 1, 1-(4-Bromophenyl)-9-methyl-2-(2,3,4-trifluorophenoxy)-1,9-dihydro-6H-purin-6-one], the IC50 under setting [1] was at most 100 nM.
As for `CCn1cnc2c(=O)n(-c3ccc(F)cc3)c(Oc3cc(F)cc(F)c3F)nc21` [Compound 26, 9-ethyl-1-(4-fluorophenyl)-2-(2,3,5-trifluorophenoxy)-1,9-dihydro-6H-purin-6-one], under “read-out: IC50”, the IC50 was at most 100 nM.
On to `Cn1cnc2c(=O)n(-c3ccc(F)cc3)c(Oc3cccc(C(F)(F)F)c3F)nc21` [Compound 43, 1-(4-fluorophenyl)-2-[2-fluoro-3-(trifluoromethyl)phenoxy]-9-methyl-1,9-dihydro-6H-purin-6-one], for which, where the note is “read-out: IC50”, the concentration for half-maximal inhibition (IC50) is at most 100 nM.
Still for that read-out and setting: then `Cn1cnc2c(=O)n(-c3ccc(Cl)cc3)c(Oc3cccc(F)c3F)nc21` [Compound 21, 1-(4-chlorophenyl)-2-(2,3-difluorophenoxy)-9-methyl-1,9-dihydro-6H-purin-6-one], with at most 100 nM.
Turning to `Cn1cnc2c(=O)n(-c3ccc(F)cc3)c(Oc3cc(F)cc(F)c3F)nc21` [Compound 20, 1-(4-fluorophenyl)-9-methyl-2-(2,3,5-trifluorophenoxy)-1,9-dihydro-6H-purin-6-one], the IC50 (read-out: IC50) is at most 100 nM.
As for `CCn1cnc2c(=O)n(-c3ccc(F)cc3)c(Oc3c(F)cc(F)cc3F)nc21` [Compound 9, 9-ethyl-1-(4-fluorophenyl)-2-(2,4,6-trifluorophenoxy)-1,9-dihydro-6H-purin-6-one], where the note is “read-out: IC50”, the half-maximal inhibitory concentration (IC50) was at most 100 nM.
The same measure, in the same setting: the value for `O=c1c2ncccc2nc(Oc2ccc(F)c(F)c2F)n1-c1ccc(F)cc1` [Compound 32, 3-(4-fluorophenyl)-2-(2,3,4-trifluorophenoxy)pyrido[3,2-d]pyrimidin-4(3H)-one] was at most 100 nM.
On the same count and under the same terms, then `Cn1cnc2c(=O)n(-c3ccc(Cl)cc3)c(Oc3ccc(C#N)c(F)c3F)nc21` [Compound 28, 4-{[1-(4-chlorophenyl)-9-methyl-6-oxo-6,9-dihydro-1H-purin-2-yl]oxy}-2,3-difluorobenzonitrile], with at most 100 nM; and `Cc1cccc(Oc2nc3c(ncn3C)c(=O)n2-c2ccc(F)cc2)c1C` [Compound 63, 2-(2,3-dimethylphenoxy)-1-(4-fluorophenyl)-9-methyl-1,9-dihydro-6H-purin-6-one], with at most 100 nM.
The same measure, in the same setting: then `Cn1cnc2c(=O)n(-c3ccc(Cl)cc3)c(Oc3cccc(C(F)(F)F)c3F)nc21` [Compound 42, 1-(4-chlorophenyl)-2-[2-fluoro-3-(trifluoromethyl)phenoxy]-9-methyl-1,9-dihydro-6H-purin-6-one], with at most 100 nM; and `Cn1cnc2c(=O)n(-c3ccc(F)cc3)c(Oc3cc(F)cc(C(F)(F)F)c3)nc21` [Compound 49, 1-(4-fluorophenyl)-2-[3-fluoro-5-(trifluoromethyl)phenoxy]-9-methyl-1,9-dihydro-6H-purin-6-one], with at most 100 nM; and `O=c1c2ncsc2nc(Oc2cc(F)c(F)c(F)c2)n1-c1ccc(F)cc1` [Compound 37, 6-(4-fluorophenyl)-5-(3,4,5-trifluorophenoxy)[1,3]thiazolo[5,4-d]pyrimidin-7(6H)-one], with at most 100 nM.
As for `Cc1csc2c(=O)n(-c3ccc(F)cc3)c(Oc3ccc(F)c(F)c3F)nc12` [Compound 53, 3-(4-fluorophenyl)-7-methyl-2-(2,3,4-trifluorophenoxy)thieno[3,2-d]pyrimidin-4(3H)-one], where the note is “read-out: IC50”, the IC50 is at most 100 nM.
The same measure, in the same setting: the value for `O=c1c2ncsc2nc(Oc2cc(F)c(F)cc2F)n1-c1ccc(F)cc1` [Compound 35, 6-(4-fluorophenyl)-5-(2,4,5-trifluorophenoxy)[1,3]thiazolo[5,4-d]pyrimidin-7(6H)-one] was at most 100 nM; that for `O=c1c2ncsc2nc(Oc2ccc(F)c(F)c2F)n1-c1ccc(F)cc1` [Compound 33, 6-(4-fluorophenyl)-5-(2,3,4-trifluorophenoxy)[1,3]thiazolo[5,4-d]pyrimidin-7(6H)-one] was at most 100 nM.
As to `CCn1cnc2c(=O)n(-c3ccc(F)cc3)c(Oc3ccc(F)c(F)c3F)nc21` [Compound 11, 9-ethyl-1-(4-fluorophenyl)-2-(2,3,4-trifluorophenoxy)-1,9-dihydro-6H-purin-6-one], the concentration for half-maximal inhibition (IC50) (read-out: IC50) is at most 100 nM.
On the same count and under the same terms, the value for `Cn1cnc2c(=O)n(-c3ccc(F)cc3)c(Oc3c(F)cc(F)cc3F)nc21` [Compound 12, 1-(4-fluorophenyl)-9-methyl-2-(2,4,6-trifluorophenoxy)-1,9-dihydro-6H-purin-6-one] was at most 100 nM; that for `Cn1cnc2c(=O)n(-c3ccc(Cl)cc3)c(Oc3ccc(F)c(F)c3F)nc21` [Compound 10, 1-(4-chlorophenyl)-9-methyl-2-(2,3,4-trifluorophenoxy)-1,9-dihydro-6H-purin-6-one] was at most 100 nM.
